Experimental data: a compilation of properties of binary mixtures (doi:10.1021/je300542s)

Experiment: xn = mol fraction of the nth substance listed
Conditions: 101 kPa

O=C1CCCN1 + CC[n+]1ccn(C)c1.F[B-](F)(F)F
speed of sound [m/s]
Conditions | 293.15 K | 298.15 K | 303.15 K | 308.15 K
x1 = 0.0786 | 1634.5 | 1622.4 | 1612.6 | 1602.5
x1 = 0.0912 | 1635 | – | 1613.4 | 1603.4
x1 = 0.1278 | 1636.6 | 1624.6 | 1615.4 | 1605.6
x1 = 0.1711 | – | 1626.5 | – | –
x1 = 0.2294 | – | – | 1620.5 | –
x1 = 0.2686 | 1642.3 | 1630.8 | 1622.3 | –
x1 = 0.3292 | 1644.6 | 1633.3 | 1624.5 | 1613.2
x1 = 0.3684 | 1646.2 | 1634.8 | 1626 | 1614
x1 = 0.4283 | 1648.7 | 1637.1 | 1627.7 | 1615
x1 = 0.4695 | 1650.2 | 1638.6 | 1628.3 | 1615.7
x1 = 0.5281 | – | 1640 | 1629.2 | 1615.9
x1 = 0.5711 | 1653.7 | 1641.1 | – | 1616.2
x1 = 0.6283 | 1655.2 | 1641.9 | 1629.5 | 1615.9
x1 = 0.6603 | 1656 | 1642.1 | 1629.2 | 1615.3
x1 = 0.7302 | 1656.7 | – | 1628 | –
x1 = 0.7598 | – | 1641.5 | 1627.1 | –
x1 = 0.8296 | 1656.4 | 1640.1 | 1624.9 | 1611
x1 = 0.8901 | – | 1638.4 | – | 1608.3

CC[n+]1ccn(C)c1.F[B-](F)(F)F + CN1CCCC1=O
speed of sound [m/s]
Conditions | 293.15 K | 298.15 K | 303.15 K | 308.15 K
x2 = 0.0696 | – | – | 1598 | 1586.4
x2 = 0.0871 | – | 1607.6 | 1595.9 | 1584.2
x2 = 0.1273 | 1615.1 | 1603.2 | – | 1579.3
x2 = 0.1676 | 1611.5 | 1599.5 | 1587.2 | –
x2 = 0.2658 | 1605.6 | 1592 | 1579 | 1565.5
x2 = 0.2689 | 1605.3 | 1592 | – | 1565.2
x2 = 0.3228 | 1603.2 | 1589 | 1575.2 | 1560.7
x2 = 0.3683 | 1601.7 | 1586.9 | – | 1557.7
x2 = 0.4291 | 1600 | 1584.2 | – | –
x2 = 0.4744 | 1599.2 | 1582.6 | 1566.9 | 1551
x2 = 0.5227 | 1597.8 | 1581 | – | 1547.9
x2 = 0.5685 | 1596.9 | 1579 | 1562.4 | 1545.4
x2 = 0.6286 | 1595 | 1576.7 | 1559.3 | 1541.5
x2 = 0.6703 | 1593 | 1574.5 | – | 1539
x2 = 0.7291 | 1590.1 | 1571.2 | 1553.4 | 1534.5
x2 = 0.7711 | 1587.7 | – | 1550.1 | 1531.2
x2 = 0.8188 | 1584 | 1564.7 | – | –
x2 = 0.8887 | 1577.9 | 1558.4 | 1539.7 | 1520.3
